Results reported in US10888087B2, “Lactam solubility” (Conopco, Inc., priority 2015, dated 2021).

Test: Screening of NIS: lactam solubility in water or water + non-ionic surfactant additive, quantified by HPLC
Type: physicochemical
Design: key to Solubility Increase vs water alone: fold: lactam dissolved in water+additive / lactam dissolved in water
Conditions: for Mean Lactam Level in Solution (ppm): 48 hours agitation
Protocol: The following representative example uses 4-(4-chlorophenyl)-5-methylene-pyrrol-2-one.
Excess solid lactam (˜3 mg) was placed in a Whatman® Mini Uniprep sample vial, fitted with a 0.45 um nylon filter. Water or water+additive (NIS) (500 μL) was added the mixture shaken and tapped briefly to initially disperse the solid and the mixture then agitated for 48 hours using a plate shaker fitted with a vial holder. After 48 hours, the solid was removed from the system by pressing down the plunger with integral filter on the vial. This removes the solid and provides filtered solution within the inner chamber which is then ready for analysis.
The level of lactam dissolved in solution was quantified using HPLC analysis. Samples were analysed on an Agilent 1200® series HPLC fitted with a Thermo Hypersil Gold® C18 column (15×2.1×3 μm), isocratic elution with 60/40 methanol/water (+0.1% Formic Acid), 0.4 mL/min flow rate, using a DAD detector at 285 nm. The lactam tested has a retention time of ˜2.8 minutes.
For each additive, the absolute level of lactam in solution was measured and reported as an increase in solubility of lactam relative to water alone.
Each test surfactant solution was tested in triplicate and the mean value of lactam in solution calculated. Values of solubility were quoted as the improvement in aqueous solubility vs water alone (i.e. mean level of lactam dissolved in water+solvent/mean level of lactam dissolved in water) to allow comparison between screens conducted on different days.

[1] = Neodol 25-7, 0% additive in water
[2] = Neodol 25-7, 0.5% additive in water
[3] = Neodol 25-7, 1% additive in water
[4] = Neodol 25-7, 2% additive in water
[5] = Neodol 25-7, 5% additive in water
[6] = Neodol 25-7, 10% additive in water
[7] = Neodol 25-7, 20% additive in water
[8] = Tween 20, 0.5% additive in water
[9] = Tween 20, 10% additive in water
[10] = Tween 20, 20% additive in water
[11] = Tween 80, 0.5% additive in water
[12] = Tween 80, 10% additive in water

- Solubility Increase vs water alone [1]: 1.0
- Mean Lactam Level in Solution (ppm) [1]: 2.4 ppm
- Solubility Increase vs water alone [2]: 48.3
- Mean Lactam Level in Solution (ppm) [2]: 116.0 ppm
- Solubility Increase vs water alone [3]: 84.7
- Mean Lactam Level in Solution (ppm) [3]: 203.2 ppm
- Solubility Increase vs water alone [4]: 162.7
- Mean Lactam Level in Solution (ppm) [4]: 390.4 ppm
- Solubility Increase vs water alone [5]: 251.4
- Mean Lactam Level in Solution (ppm) [5]: 603.3 ppm
- Solubility Increase vs water alone [6]: 255.2
- Mean Lactam Level in Solution (ppm) [6]: 612.5 ppm
- Solubility Increase vs water alone [7]: 189.8
- Mean Lactam Level in Solution (ppm) [7]: 455.6 ppm
- Solubility Increase vs water alone (Tween 20, 0% additive in water): 1.0
- Mean Lactam Level in Solution (ppm) (Tween 20, 0% additive in water): 1.7 ppm
- Solubility Increase vs water alone [8]: 36.9
- Mean Lactam Level in Solution (ppm) [8]: 61.6 ppm
- Solubility Increase vs water alone (Tween 20, 1% additive in water): 70.9
- Mean Lactam Level in Solution (ppm) (Tween 20, 1% additive in water): 118.3 ppm
- Solubility Increase vs water alone (Tween 20, 2% additive in water): 135.8
- Mean Lactam Level in Solution (ppm) (Tween 20, 2% additive in water): 226.5 ppm
- Solubility Increase vs water alone (Tween 20, 5% additive in water): 310.7
- Mean Lactam Level in Solution (ppm) (Tween 20, 5% additive in water): 518.3 ppm
- Solubility Increase vs water alone [9]: 497.3
- Mean Lactam Level in Solution (ppm) [9]: 829.6 ppm
- Solubility Increase vs water alone [10]: 927.0
- Mean Lactam Level in Solution (ppm) [10]: 1546.3 ppm
- Solubility Increase vs water alone (Tween 80, 0% additive in water): 1.00
- Mean Lactam Level in Solution (ppm) (Tween 80, 0% additive in water): 6.0 ppm
- Solubility Increase vs water alone [11]: 6.92
- Mean Lactam Level in Solution (ppm) [11]: 41.5 ppm
- Solubility Increase vs water alone (Tween 80, 1% additive in water): 12.51
- Mean Lactam Level in Solution (ppm) (Tween 80, 1% additive in water): 75.0 ppm
- Solubility Increase vs water alone (Tween 80, 2% additive in water): 20.56
- Mean Lactam Level in Solution (ppm) (Tween 80, 2% additive in water): 123.3 ppm
- Solubility Increase vs water alone (Tween 80, 5% additive in water): 34.74
- Mean Lactam Level in Solution (ppm) (Tween 80, 5% additive in water): 208.4 ppm
- Solubility Increase vs water alone [12]: 65.23
- Mean Lactam Level in Solution (ppm) [12]: 391.4 ppm
Structure (SMILES): C=C1NC(=O)C=C1c1ccc(Cl)cc1 [Ref. 488, 4-(4-chlorophenyl)-5-methylene-pyrrol-2-one]
